Toxic doses and inconclusive results are not listed. Cut-off read from the data, not from the text of the source: active = T/C of 150% or more; inactive = T/C below 125%.
Tested on: L1210 leukemia ip in BDF1 mice, survival T/C
Experiment: NCI In Vivo Anticancer Drug Screen. Data for tumor model L1210 Leukemia (intraperitoneal) in B6D2F1 (BDF1) mice
Conditions: endpoint: mean survival time, higher = longer survival
Procedure, shortened: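 Antitumor effect is assessed in tumor-bearing animals. Survival in the compound arm is compared with a vehicle-dosed control arm and expressed as their quotient.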

[1] = dose: 100.0 mg/kg/injection, schedule: Q01DX009 (ip), vehicle: saline
[2] = dose: 100.0 mg/kg/injection, schedule: Q04DX003 (ip), vehicle: saline
[3] = dose: 200.0 mg/kg/injection, schedule: Q01DX009 (ip), vehicle: saline
[4] = dose: 200.0 mg/kg/injection, schedule: Q04DX003 (ip), vehicle: saline
[5] = dose: 400.0 mg/kg/injection, schedule: Q04DX003 (ip), vehicle: saline
[6] = dose: 100.0 mg/kg/injection, schedule: Q01DX009 (ip), vehicle: Klucel (hydroxypropylcellulose) (HPC)
[7] = dose: 200.0 mg/kg/injection, schedule: Q01DX009 (ip), vehicle: Klucel (hydroxypropylcellulose) (HPC)
[8] = dose: 50.0 mg/kg/injection, schedule: Q01DX001 (ip), vehicle: saline
[9] = dose: 100.0 mg/kg/injection, schedule: Q01DX001 (ip), vehicle: saline
[10] = dose: 200.0 mg/kg/injection, schedule: Q01DX001 (ip), vehicle: saline
[11] = dose: 400.0 mg/kg/injection, schedule: Q01DX001 (ip), vehicle: saline
[12] = dose: 25.0 mg/kg/injection, schedule: Q01DX009 (ip), vehicle: saline
[13] = dose: 50.0 mg/kg/injection, schedule: Q01DX009 (ip), vehicle: saline
[14] = dose: 100.0 mg/kg/injection, schedule: Q04DX003 (ip), vehicle: saline with Tween-80
[15] = dose: 200.0 mg/kg/injection, schedule: Q04DX003 (ip), vehicle: saline with Tween-80
[16] = dose: 400.0 mg/kg/injection, schedule: Q04DX003 (ip), vehicle: saline with Tween-80
[17] = dose: 100.0 mg/kg/injection, schedule: Q01DX001 (ip), vehicle: carboxymethylcellulose (CMC)
[18] = dose: 200.0 mg/kg/injection, schedule: Q01DX001 (ip), vehicle: carboxymethylcellulose (CMC)
[19] = dose: 400.0 mg/kg/injection, schedule: Q01DX001 (ip), vehicle: carboxymethylcellulose (CMC)

Measured: T/C

O=[N+]([O-])c1nncs1
inactive: dose: 6.25 mg/kg/injection, schedule: Q04DX003 (ip), vehicle: saline 104 % of control | dose: 12.5 mg/kg/injection, schedule: Q04DX003 (ip), vehicle: saline 98 % of control | dose: 25.0 mg/kg/injection, schedule: Q04DX003 (ip), vehicle: saline 101 % of control

O=C(Nc1cccc(C(F)(F)F)c1)c1cc(C(O)C2CCCCN2)c2cccc(C(F)(F)F)c2n1 (stereo not drawn)
inactive: dose: 100.0 mg/kg/injection, schedule: Q01DX009 (sc), vehicle: olive oil, sesame oil, peanut oil 105 % of control | dose: 100.0 mg/kg/injection, schedule: Q04DX003 (sc), vehicle: olive oil, sesame oil, peanut oil 102 % of control | dose: 200.0 mg/kg/injection, schedule: Q01DX009 (sc), vehicle: olive oil, sesame oil, peanut oil 97 % of control | dose: 200.0 mg/kg/injection, schedule: Q04DX003 (sc), vehicle: olive oil, sesame oil, peanut oil 97 % of control | dose: 400.0 mg/kg/injection, schedule: Q01DX009 (sc), vehicle: olive oil, sesame oil, peanut oil 108 % of control | dose: 400.0 mg/kg/injection, schedule: Q04DX003 (sc), vehicle: olive oil, sesame oil, peanut oil 97 % of control

CCCCC(C#N)(C(=O)OCC)C(C)(C)C (stereo not drawn)
inactive: [1] 105 % of control | [2] 96 % of control | [3] 92 % of control | [4] 97 % of control | dose: 400.0 mg/kg/injection, schedule: Q01DX009 (ip), vehicle: saline 101 % of control | [5] 96 % of control

O=C(O)COc1c(Br)cc(Br)cc1Br
inactive: dose: 50.0 mg/kg/injection, schedule: Q01DX009 (ip), vehicle: Klucel (hydroxypropylcellulose) (HPC) 93 % of control | [6] 96 % of control | [7] 88 % of control

O=C(NCCN1CCCC1)NC1CCCCC1
inactive: [6] 101 % of control | [7] 98 % of control

O=C(COc1ccc(Cl)cc1C(=O)O)NCc1ccc(NC(=O)Nc2ccc(S(=O)(=O)F)cc2Cl)cc1
inactive: dose: 100.0 mg/kg/injection, schedule: Q01DX001 (ip), vehicle: Klucel (hydroxypropylcellulose) (HPC) 102 % of control | dose: 200.0 mg/kg/injection, schedule: Q01DX001 (ip), vehicle: Klucel (hydroxypropylcellulose) (HPC) 93 % of control | dose: 400.0 mg/kg/injection, schedule: Q01DX001 (ip), vehicle: Klucel (hydroxypropylcellulose) (HPC) 89 % of control

COc1cccc(C2CCCCCC2OS(=O)(=O)c2ccc(C)cc2)c1OC (stereo not drawn)
inactive: dose: 100.0 mg/kg/injection, schedule: Q04DX003 (ip), vehicle: acetone 110 % of control | dose: 200.0 mg/kg/injection, schedule: Q04DX003 (ip), vehicle: acetone 98 % of control | dose: 400.0 mg/kg/injection, schedule: Q04DX003 (ip), vehicle: acetone 103 % of control

CCCCCCCc1nc2c([nH]1)c(=O)n(C)c(=O)n2C
inactive: [8] 98 % of control | [9] 101 % of control | [10] 95 % of control | [11] 116 % of control

CCOC(=O)CNC(=O)C1OC(n2cnc3c(N)ncnc32)C(O)C1O (stereo not drawn)
inactive: dose: 6.25 mg/kg/injection, schedule: Q01DX009 (ip), vehicle: saline 105 % of control | dose: 12.5 mg/kg/injection, schedule: Q01DX005 (ip), vehicle: saline 102 % of control | dose: 12.5 mg/kg/injection, schedule: Q01DX009 (ip), vehicle: saline 110 % of control | dose: 25.0 mg/kg/injection, schedule: Q01DX005 (ip), vehicle: saline 114 % of control

COc1ccc(N(CCO)CCO)cc1
inactive: [8] 96 % of control | [9] 102 % of control | [10] 96 % of control

CCCCCCCCC(C(=O)c1ccccc1)=C(C(F)(F)F)C(F)(F)F
inactive: [12] 100 % of control | [13] 96 % of control | [1] 91 % of control | [14] 86 % of control | [15] 90 % of control | [16] 95 % of control

O=C(O)c1ccc(O)cn1
inactive: [17] 93 % of control | [18] 95 % of control | [19] 95 % of control

COC(=O)CC(c1ccccc1)N1CCCC1 (stereo not drawn)
inactive: [9] 98 % of control | [10] 104 % of control | [11] 108 % of control

S=C(SP(SC(=S)N1CCCCC1)SC(=S)N1CCCCC1)N1CCCCC1
inactive: dose: 100.0 mg/kg/injection, schedule: Q04DX002 (ip), vehicle: saline 95 % of control | dose: 200.0 mg/kg/injection, schedule: Q04DX002 (ip), vehicle: saline 89 % of control | dose: 400.0 mg/kg/injection, schedule: Q04DX002 (ip), vehicle: saline 95 % of control

COc1ccc(C(=O)CC2(O)C(=O)Nc3ccc(Br)cc32)cc1 (stereo not drawn)
inactive: dose: 100.0 mg/kg/injection, schedule: Q04DX002 (ip), vehicle: Klucel (hydroxypropylcellulose) (HPC) 92 % of control | dose: 200.0 mg/kg/injection, schedule: Q04DX002 (ip), vehicle: Klucel (hydroxypropylcellulose) (HPC) 89 % of control | dose: 400.0 mg/kg/injection, schedule: Q04DX002 (ip), vehicle: Klucel (hydroxypropylcellulose) (HPC) 92 % of control

CC1(C)COC(Cc2ccccc2)=N1
inactive: [12] 98 % of control | [13] 104 % of control | dose: 50.0 mg/kg/injection, schedule: Q04DX003 (ip), vehicle: saline 96 % of control | [1] 102 % of control | [2] 94 % of control | [3] 101 % of control | [4] 91 % of control

O=[As](O)(c1cccc(Cl)c1)C1CCCCC1O (stereo not drawn)
inactive: dose: 25.0 mg/kg/injection, schedule: Q04DX003 (ip), vehicle: saline with Tween-80 91 % of control | dose: 50.0 mg/kg/injection, schedule: Q04DX003 (ip), vehicle: saline with Tween-80 89 % of control

CCCCCCCCC(=O)Nc1cccc(O)c1
inactive: [14] 96 % of control | [15] 101 % of control | [16] 96 % of control

CCOC(=O)C(C(C)=O)C(CCCCO)C(C(C)=O)C(=O)OCC (stereo not drawn)
inactive: [9] 97 % of control | [10] 101 % of control | [11] 94 % of control

O=C(NC(=S)Nc1ccccc1)c1cccc(Br)c1
inactive: dose: 75.0 mg/kg/injection, schedule: Q01DX001 (ip), vehicle: carboxymethylcellulose (CMC) 90 % of control | dose: 150.0 mg/kg/injection, schedule: Q01DX001 (ip), vehicle: carboxymethylcellulose (CMC) 88 % of control | dose: 300.0 mg/kg/injection, schedule: Q01DX001 (ip), vehicle: carboxymethylcellulose (CMC) 96 % of control

CN(C)C=C1C(=O)NC(=O)NC1=O
inactive: dose: 25.0 mg/kg/injection, schedule: Q01DX001 (ip), vehicle: saline 96 % of control | [12] 95 % of control | [8] 103 % of control | [13] 106 % of control | [9] 102 % of control | [1] 106 % of control

CCOC(=O)CCSCC(C)(C)C(=O)OCC
inactive: [2] 105 % of control | [4] 105 % of control | [5] 103 % of control

O=C1CCCC2CCCC12 (stereo not drawn)
inactive: [17] 93 % of control | [18] 95 % of control | [19] 93 % of control

CCCCC(C#N)C(=O)OCC (stereo not drawn)
inactive: dose: 100.0 mg/kg/injection, schedule: Q04DX003 (ip), vehicle: Klucel (hydroxypropylcellulose) (HPC) 97 % of control | dose: 200.0 mg/kg/injection, schedule: Q04DX003 (ip), vehicle: Klucel (hydroxypropylcellulose) (HPC) 94 % of control | dose: 400.0 mg/kg/injection, schedule: Q04DX003 (ip), vehicle: Klucel (hydroxypropylcellulose) (HPC) 87 % of control
